Data: publication PMC13385394, “Cryo-EM Structure of the TRPC1/5 Heteromer Enables Design of Antidepressant and Anxiolytic Drug with Reduced Side Effects” (Nature Communications, 2026)
“Also recorded” adds a separate entry of the source.

Experiments:
[1] = system: CUMS-induced depressive-like behaviors; assay: Sucrose preference test (SPT) in CUMS model; assay type: in vivo, mouse; conditions: CUMS mice
Experimental: (§1) The stressors included food and water deprivation, foot shock, wet bedding, cage tilting, restraint, shaking, and olfactory stimulation. These seven stressors were randomly applied each week to ensure unpredictability. The stress induction was maintained continuously for 28 days. Following model establishment, the tail suspension test (TST) was performed to confirm the successful induction of depressive-like behaviors. Mice that met the criteria were randomly assigned to experimental groups.
Acute Treatment: A single dose of the test compound was administered, followed by the sucrose preference test (SPT).
Chronic Treatment: Mice were treated daily for 14 consecutive days. The SPT was conducted on day 11, and the forced swimming test (FST) was performed on day 14.
Mice were acclimated to 1% sucrose solution and plain water for 2 days. On the second day, the positions of the sucrose solution and water were swapped to eliminate positional bias. […] Mice were provided with pre-weighed 1% sucrose solution and plain water. […] Sucrose preference (%) was calculated as Sucrose Preference = A/(A + B)×100.

[2] = system: CUMS-induced depressive-like behaviors; assay: Forced swim test (FST) in CUMS model; assay type: in vivo, mouse; conditions: CUMS mice; 14 days once-daily oral; vs vehicle
Experimental: as §1, with “groups. Chronic Treatment: Mice were treated daily for 14 consecutive days. The SPT was conducted on day 11, and the forced swimming test (FST) was performed on day 14.” for “groups.”

[3] = system: diet-induced obesity (DIO) mice; assay: Diet-induced obesity (DIO) model, body weight and food intake; assay type: in vivo, mouse; conditions: 11 days once daily, HC-070 and JD03-02 10 mg/kg i.g., Semaglutide 0.123 mg/kg s.c.
Experimental: A maximum of five mice were housed per cage during the acclimatization period, and three mice per cage during the experimental period. […] The day of administration was defined as day 1 (D1) of the experiment, with a single dose/day administered for 11 consecutive days. Daily observations were made on the animals’ general condition. Body weight was measured on days 1, 3, 5, 7, 9, and 11 post-administrations. Food intake was measured on days 1, 3, 5, 7, and 9 post-administrations by calculating the difference between the amount of food provided and the amount remaining in the cage, divided by the number of animals in the cage to determine the average food intake per mouse. The cumulative food intake during the experiment was calculated by summing the food intake measurements taken on different days.

healthy C57BL/6J mice = conditions: mouse, in vivo
Experimental: The Open-Field test (OFT) was utilized to evaluate the autonomous behavior, exploratory tendencies, and anxiety levels of experimental animals in a new environment. Each mouse was placed at the center of the container and given a 10-min exploration period. Before the test, the animals were acclimated to the experimental setting for 60 min. […] This cleaning procedure aimed to reduce the risk of contamination and prevent any misleading experimental results due to olfactory stimuli. Anxiety levels and exploratory behavior were assessed by measuring the time spent in the central area, the number of entries into the central area, and the total distance traveled by the mice.

hTRPC5 = biological target: T1, hTRPC5 (Homo sapiens, UniProt Q9UL62); assay: Calcium flux assay (Calcium 5 kit, EA 100 nM), hTRPC5 in HEK293T cells; assay type: cell-based; conditions: calcium flux screening, 10 μM
T1 construct: Full-length, non-tagged hTRPC1 and hTRPC5 constructs are used for calcium flux assays; expressed in transfected cells; host or cells: HEK293T
T1 sequence (Q9UL62 1-973): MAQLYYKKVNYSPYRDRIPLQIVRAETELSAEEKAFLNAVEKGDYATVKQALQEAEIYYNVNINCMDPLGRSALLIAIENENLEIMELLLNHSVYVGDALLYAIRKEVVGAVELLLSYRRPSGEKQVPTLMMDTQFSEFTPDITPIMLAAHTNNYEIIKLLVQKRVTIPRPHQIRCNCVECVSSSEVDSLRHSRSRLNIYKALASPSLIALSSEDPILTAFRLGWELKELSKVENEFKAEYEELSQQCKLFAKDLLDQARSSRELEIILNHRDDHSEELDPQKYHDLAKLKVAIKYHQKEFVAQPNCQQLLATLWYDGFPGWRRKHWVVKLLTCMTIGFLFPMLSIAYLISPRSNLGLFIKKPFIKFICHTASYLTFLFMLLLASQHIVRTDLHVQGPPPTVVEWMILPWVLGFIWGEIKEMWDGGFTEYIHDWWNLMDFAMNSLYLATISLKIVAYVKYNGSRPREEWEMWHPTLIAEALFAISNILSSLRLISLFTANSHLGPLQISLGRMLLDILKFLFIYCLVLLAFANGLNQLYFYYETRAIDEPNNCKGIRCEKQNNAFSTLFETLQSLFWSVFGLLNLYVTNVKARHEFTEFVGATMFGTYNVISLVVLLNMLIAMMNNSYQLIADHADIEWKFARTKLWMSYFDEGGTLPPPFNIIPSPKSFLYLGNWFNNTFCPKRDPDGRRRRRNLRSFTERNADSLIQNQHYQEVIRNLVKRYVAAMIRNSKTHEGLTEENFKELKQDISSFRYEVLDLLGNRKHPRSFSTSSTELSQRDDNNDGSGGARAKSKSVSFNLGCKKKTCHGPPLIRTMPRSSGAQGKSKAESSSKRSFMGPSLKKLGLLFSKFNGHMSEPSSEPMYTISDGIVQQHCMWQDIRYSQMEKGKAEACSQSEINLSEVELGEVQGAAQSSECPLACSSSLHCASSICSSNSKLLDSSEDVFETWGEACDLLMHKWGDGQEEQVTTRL
Experimental: Five minutes before measurement, molecules are added to each well at a final concentration of 10 µM under light-sensitive conditions.

TRPC1/5 = biological target: T2, TRPC1/5 (Homo sapiens, UniProt P48995+Q9UL62); assay: Calcium flux assay (Calcium 5 kit, EA 100 nM), hTRPC1 + hTRPC5 in HEK293T cells; assay type: cell-based; conditions: calcium flux screening, 10 μM
T2 construct: Full-length, non-tagged hTRPC1 and hTRPC5 constructs are used for calcium flux assays; expressed in transfected cells; host or cells: HEK293T
Experimental: Full-length, non-tagged hTRPC1 and hTRPC5 constructs are used for calcium flux assays. hTRPC5 is transfected alone or co-transfected with hTRPC1 into HEK293T cells (70–80% confluency) using PEI as the transfection reagent.
The culture medium is removed, and 100 µL of loading buffer (Calcium 5 Assay Kit) is added to each well, followed by a 1-h incubation at 37 °C in 5% CO2. Five minutes before measurement, molecules are added to each well at a final concentration of 10 µM under light-sensitive conditions.

TRPC5 homomers [4] = biological target: T3, TRPC5 homomers (Homo sapiens, UniProt Q9UL62); assay: Whole-cell patch-clamp, agonist activation of TRPC5 homomers in HEK293T cells; assay type: cell-based
T3 construct: full length hTRPC5 (TRPC5 wild type (WT)); expressed in transfected cells; host or cells: HEK293T
T3 sequence (Q9UL62 1-973): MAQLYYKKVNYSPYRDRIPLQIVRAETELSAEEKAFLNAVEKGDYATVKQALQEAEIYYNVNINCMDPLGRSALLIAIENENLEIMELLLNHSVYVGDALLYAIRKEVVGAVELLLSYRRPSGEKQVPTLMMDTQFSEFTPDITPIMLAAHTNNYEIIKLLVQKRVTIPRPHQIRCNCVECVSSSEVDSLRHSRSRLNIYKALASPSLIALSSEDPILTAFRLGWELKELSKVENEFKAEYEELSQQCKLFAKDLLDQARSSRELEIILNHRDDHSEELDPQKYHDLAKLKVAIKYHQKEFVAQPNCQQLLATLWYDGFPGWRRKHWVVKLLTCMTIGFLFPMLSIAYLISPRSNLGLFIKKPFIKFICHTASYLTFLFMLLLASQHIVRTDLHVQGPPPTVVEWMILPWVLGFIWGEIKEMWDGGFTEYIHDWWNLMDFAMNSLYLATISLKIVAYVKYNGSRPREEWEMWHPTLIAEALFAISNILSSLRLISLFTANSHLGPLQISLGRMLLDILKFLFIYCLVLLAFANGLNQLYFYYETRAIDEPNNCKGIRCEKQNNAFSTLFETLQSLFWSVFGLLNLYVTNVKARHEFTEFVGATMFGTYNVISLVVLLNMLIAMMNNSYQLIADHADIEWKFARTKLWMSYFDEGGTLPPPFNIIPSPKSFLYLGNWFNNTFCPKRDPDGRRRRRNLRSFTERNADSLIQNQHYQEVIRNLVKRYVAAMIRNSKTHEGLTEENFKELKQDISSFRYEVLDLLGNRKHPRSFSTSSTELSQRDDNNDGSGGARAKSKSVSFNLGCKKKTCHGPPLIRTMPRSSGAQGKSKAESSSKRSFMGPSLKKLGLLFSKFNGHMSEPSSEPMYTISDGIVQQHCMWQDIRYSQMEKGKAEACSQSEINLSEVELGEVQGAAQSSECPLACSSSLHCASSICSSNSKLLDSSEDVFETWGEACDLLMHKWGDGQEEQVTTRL

TRPC1/5 heteromers [5] = biological target: T4, TRPC1/5 heteromers (Homo sapiens, UniProt P48995+Q9UL62); assay: Whole-cell patch-clamp, agonist activation of TRPC1/5 (TRPC1 and TRPC5 co-transfected) in HEK293T cells; assay type: cell-based
T4 construct: wild type plasmids full-length hTRPC1 (WT) and full-length hTRPC5 (WT); expressed in transfected cells; host or cells: HEK293T
Text: (§2) The full-length hTRPC5 or truncated mTRPC5, and the full-length hTRPC1 constructs was respectively co-transfected in a plasmid ration 1:3 (w/w) into HEK293T cells (from the ATCC). As previously described, a mCherry was inserted into TRPC5 constructs and a GFP was inserted at the C terminus of TRPC1. Therefore, Cells with red and green fluorescence were selected for whole-cell patch recordings (HEKA EPC10 amplifier, […] software (https://www.heka.com/downloads/downloads_main.html#down_patchmaster)). A 1-s ramp protocol from −100 to +100 mV was applied at a frequency of 0.2 Hz. Signals were sampled at 50 kHz and filtered at 2.9 kHz. The pipette solution contained 130 mM CsCl, 1 mM MgCl2, 5.7 mM CaCl2, 10 mM EGTA, and 10 mM Hepes (calculated free Ca^2+, 200 nM), and the pH was titrated to 7.2 using CsOH[40]. The standard bath solution contained 140 mM NaCl, 5 mM KCl, 1 mM MgCl2, 2 mM CaCl2, 10 mM Hepes, and 10 mM D-glucose, and the pH was adjusted to 7.4 with NaOH (1 M). The recording chamber (150 μL) was perfused at a rate of ~2 mL/min. All recordings were performed at room temperature.

mCPP-induced anxiety = assay: Open-field test (OFT), mCPP-induced anxiety model; conditions: mCPP-induced anxiety-like mice; single dose
TRPC5 homomers [6] = biological target: T3, TRPC5 homomers; assay: Whole-cell patch-clamp, inhibition of EA-activated TRPC5 homomers; assay type: cell-based; conditions: whole-cell patch-clamp
TRPC1/5 heteromers [7] = biological target: T4, TRPC1/5 heteromers; assay: Whole-cell patch-clamp, inhibition of EA-activated TRPC1/5 heteromers; assay type: cell-based; conditions: whole-cell patch-clamp; read-out: IC50, TRPC1/C5
Text: as §2

[8] = biological target: the molecule itself; assay: cryo-EM structure; TRPC1/5 heteromer co-expressed, purified in tandem on Strep-Tactin and anti-Flag M2 resin and Superose 6 (25 mM Hepes pH 7.5, 150 mM NaCl, 1 mM DTT, LMNG/CHS/GDN); single-particle cryo-EM, 2.84 Å overall

T2 sequence (P48995 whole entry, one chain of several): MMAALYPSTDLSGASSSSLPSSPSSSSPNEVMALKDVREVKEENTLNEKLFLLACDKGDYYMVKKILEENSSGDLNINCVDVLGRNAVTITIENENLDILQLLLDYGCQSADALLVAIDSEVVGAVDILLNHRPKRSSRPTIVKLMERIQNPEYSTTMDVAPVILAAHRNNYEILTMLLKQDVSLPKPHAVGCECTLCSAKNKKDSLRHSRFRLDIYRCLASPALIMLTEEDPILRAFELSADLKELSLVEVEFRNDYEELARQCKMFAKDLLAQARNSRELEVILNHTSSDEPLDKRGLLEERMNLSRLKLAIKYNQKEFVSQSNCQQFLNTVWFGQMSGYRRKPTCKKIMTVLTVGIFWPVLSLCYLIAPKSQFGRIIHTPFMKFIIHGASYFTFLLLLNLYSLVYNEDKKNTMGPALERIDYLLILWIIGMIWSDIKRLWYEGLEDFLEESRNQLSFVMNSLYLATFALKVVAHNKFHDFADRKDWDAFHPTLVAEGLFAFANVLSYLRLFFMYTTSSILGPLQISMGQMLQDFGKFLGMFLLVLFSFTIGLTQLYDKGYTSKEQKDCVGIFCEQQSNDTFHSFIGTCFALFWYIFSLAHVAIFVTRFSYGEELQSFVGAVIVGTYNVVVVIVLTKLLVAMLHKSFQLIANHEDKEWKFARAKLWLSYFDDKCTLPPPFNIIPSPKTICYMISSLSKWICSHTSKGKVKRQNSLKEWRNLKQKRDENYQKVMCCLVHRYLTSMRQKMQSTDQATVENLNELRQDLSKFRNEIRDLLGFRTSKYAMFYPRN
T4 sequence (P48995 whole entry, one chain of several): as above

CNCCC(Oc1ccc(C(F)(F)F)cc1)c1ccccc1 (centres unmarked) [fluoxetine, reference compound]
sucrose intake (SPT), repeated dosing ([1]; 11 days once-daily oral, vs vehicle): significantly improved sucrose intake
sucrose preference (SPT), single dose ([1]; single oral dose, JD03-02 30 mg/kg): no immediate effect; also recorded: ineffective
immobility (FST), repeated dosing [2]: reduced immobility

Cn1c(=O)n(CCCO)c(=O)c2c1nc(Oc1cccc(Cl)c1)n2Cc1ccc(Cl)cc1 [HC-070]
body weight [3]: significantly increased body weight
food intake [3]: elevated food intake
OFT total distance traveled (healthy C57BL/6J mice): increased total distance traveled

Semaglutide [reference compound]
body weight [3]: effectively reduced both weight and appetite
food intake [3]: effectively reduced both weight and appetite

Cn1c(=O)n(CCN2CCCC2)c(=O)c2c1nc(Oc1cccc(Cl)c1)n2Cc1ccc(Cl)cc1 [H01]
inhibitory activity toward TRPC5 homomers (in words) (hTRPC5): markedly reduced inhibitory activity
inhibition of TRPC1/5 heteromers (in words) (TRPC1/5): moderate inhibition

Cn1c(=O)n(CCCO)c(=O)c2c1nc(Oc1ccc(Cl)c(OC(F)(F)F)c1)n2Cc1ccc(Cl)cc1 [AM237]
activation of TRPC5 homomers (in words) (TRPC5 homomers [4]): activates TRPC5 homomers
activation of TRPC1/5 heteromers (in words) (TRPC1/5 heteromers [5]): not TRPC1/5 heteromers

Cn1c(=O)n(CCNCc2ccccc2)c(=O)c2c1nc(Oc1cccc(Cl)c1)n2Cc1ccc(Cl)cc1 [H03]
inhibitory activity toward TRPC5 homomers (in words) (hTRPC5): restored TRPC5 homomer inhibition

CN1C(=O)CN=C(c2ccccc2)c2cc(Cl)ccc21 [diazepam, reference compound]
OFT total distance traveled (mCPP-induced anxiety): no significant effect

CC(C)NCCn1c(=O)c2c(nc(Oc3cccc(Cl)c3)n2Cc2ccc(Cl)cc2)n(C)c1=O [H02]
inhibitory activity toward TRPC5 homomers (in words) (hTRPC5): markedly reduced inhibitory activity
inhibition of TRPC1/5 heteromers (in words) (TRPC1/5): moderate inhibition

CN(C)CCCCCCn1c(=O)c2c(nc(Oc3cccc(Cl)c3)n2Cc2ccc(Cl)cc2)n(C)c1=O [H10]
HillSlope, TRPC5 (TRPC5 homomers [6]): 0.3841
IC50 (TRPC5 homomers [6]): 503 nM
IC50 (TRPC1/5 heteromers [7]): 2.57 nM

B1: C-terminal truncated (210 residues) mouse TRPC5 with triple Flag tag and MBP on its N terminus (domain or fragment, UniProt Q9QX29 1-765, looked up)
chain: MAQLYYKKVNYSPYRDRIPLQIVRAETELSAEEKAFLSAVEKGDYATVKQALQEAEIYYNVNINCMDPLGRSALLIAIENENLEIMELLLNHSVYVGDALLYAIRKEVVGAVELLLSYRKPSGEKQVPTLMMDTQFSEFTPDITPIMLAAHTNNYEIIKLLVQKRVTIPRPHQIRCNCVECVSSSEVDSLRHSRSRLNIYKALASPSLIALSSEDPILTAFRLGWELKELSKVENEFKAEYEELSQQCKLFAKDLLDQARSSRELEIILNHRDDHSEELDPQKYHDLAKLKVAIKYHQKEFVAQPNCQQLLATLWYDGFPGWRRKHWVVKLLTCMTIGFLFPMLSIAYLISPRSNLGLFIKKPFIKFICHTASYLTFLFMLLLASQHIVRTDLHVQGPPPTVVEWMILPWVLGFIWGEIKEMWDGGFTEYIHDWWNLMDFAMNSLYLATISLKIVAYVKYNGSRPREEWEMWHPTLIAEALFAISNILSSLRLISLFTANSHLGPLQISLGRMLLDILKFLFIYCLVLLAFANGLNQLYFYYETRAIDEPNNCKGIRCEKQNNAFSTLFETLQSLFWSVFGLLNLYVTNVKARHEFTEFVGATMFGTYNVISLVVLLNMLIAMMNNSYQLIADHADIEWKFARTKLWMSYFDEGGTLPPPFNIIPSPKSFLYLGNWFNNTFCPKRDPDGRRRRHNLRSFTERHADSLIQNQHYQEVIRNLVKRYVAAMIRNSKTNEGLTEENFKELKQDISSFRYEVLDLLGNRK
notes: TRPC5, mouse, lacking the 210 C-terminal residues; Three copies of this chain stand in the heterotetramer with one TRPC1 subunit; The results call the complex 'human TRPC1/5' although the TRPC5 construct is mouse; also called Cryo-TRPC5; truncated mTRPC5; not shown: triple Flag, N-terminal, kept
binding result [8]: binds
